Values of other authors as cited in US9418186B2, “Assessment of solute partitioning in crude oils” (EXXONMOBIL RESEARCH AND ENGINEERING COMPANY, priority 2012, dated 2016).
Values joined by “and” are separate entries in the source; they are usually repeats but may differ in a detail not shown here. Identical values can stand only once. Like-named read-outs stand apart in the source and are kept apart here.

Assays:
[1] = North Sea crude oil / water
[2] = chloroform / water
[3] = not given; remark: listed apart in the source
[4] = Miller (North Sea) crude oil / water

SMILES | experimental partition coefficient [1] | experimental value for the log of the partition coefficient [1] | literature value for the partition coefficient in octanol-water | log K in octanol-water (literature) | experimental partition coefficient [2] | experimental value for the log of the partition coefficient [2] | solubility in water [3] [gmol/m^3] | experimental partition coefficient [4] | experimental value for the log of the partition coefficient [4]
S [H2S] | 4.09 | 0.612 | 27.5 | 1.44 |  |  |  |  | 
O=C1CCCCCN1 [caprolactam] |  |  |  |  | 0.74 | −0.131 | 40353 |  | 
Oc1ccccc1 [phenol] |  |  | 28.8 | 1.45 | 0.74 | −0.13 |  | 1.72 | 0.238 and 0.24
